Measurements: the NIST ThermoML archive (doi:10.1016/j.jct.2012.08.021)

Experiment: xn = mol fraction of the nth substance listed
Conditions: 101 kPa, Liquid, Vibrating tube method

CN(CCO)CCO [N-methyldiethanolamine] + C[S+](C)[O-]
Conditions | mass density [kg/m3]
293.14 K, x1 = 0.5998 | 1053.8
293.15 K, x1 = 0.1002 | 1089.57
293.15 K, x1 = 0.2 | 1079.89
293.15 K, x1 = 0.3001 | 1071.58
293.15 K, x1 = 0.4001 | 1064.66
293.15 K, x1 = 0.5002 | 1058.74
293.15 K, x1 = 0.7002 | 1049.58
293.15 K, x1 = 0.7998 | 1046.1
293.15 K, x1 = 0.8998 | 1043.37
293.15 K, x1 = 1 | 1040.6
303.14 K, x1 = 0.4001 | 1056.1
303.14 K, x1 = 0.5998 | 1045.65
303.15 K, x1 = 0.1002 | 1080.03
303.15 K, x1 = 0.2 | 1070.75
303.15 K, x1 = 0.3001 | 1062.76
303.15 K, x1 = 0.5002 | 1050.39
303.15 K, x1 = 0.7002 | 1041.61
303.15 K, x1 = 0.7998 | 1038.28
303.15 K, x1 = 0.8998 | 1035.67
303.15 K, x1 = 1 | 1033.02
313.14 K, x1 = 0.4001 | 1047.54
313.14 K, x1 = 0.5998 | 1037.49
313.15 K, x1 = 0.1002 | 1070.49
313.15 K, x1 = 0.2 | 1061.61
313.15 K, x1 = 0.3001 | 1053.94
313.15 K, x1 = 0.5002 | 1042.06
313.15 K, x1 = 0.7002 | 1033.61
313.15 K, x1 = 0.7998 | 1030.42
313.15 K, x1 = 0.8998 | 1027.95
313.15 K, x1 = 1 | 1025.4
323.14 K, x1 = 0.4001 | 1038.99
323.14 K, x1 = 0.5998 | 1029.33
323.15 K, x1 = 0.1002 | 1060.95
323.15 K, x1 = 0.2 | 1052.47
323.15 K, x1 = 0.3001 | 1045.11
323.15 K, x1 = 0.5002 | 1033.71
323.15 K, x1 = 0.7002 | 1025.6
323.15 K, x1 = 0.7998 | 1022.53
323.15 K, x1 = 0.8998 | 1020.18
323.15 K, x1 = 1 | 1017.74
333.14 K, x1 = 0.4001 | 1030.43
333.14 K, x1 = 0.5998 | 1021.15
333.15 K, x1 = 0.1002 | 1051.41
333.15 K, x1 = 0.2 | 1043.33
333.15 K, x1 = 0.3001 | 1036.29
333.15 K, x1 = 0.5002 | 1025.37
333.15 K, x1 = 0.7002 | 1017.56
333.15 K, x1 = 0.7998 | 1014.63
333.15 K, x1 = 0.8998 | 1012.37
333.15 K, x1 = 1 | 1010.03
343.14 K, x1 = 0.4001 | 1021.86
343.14 K, x1 = 0.5002 | 1017.01
343.14 K, x1 = 0.5998 | 1012.95
343.15 K, x1 = 0.1002 | 1041.86
343.15 K, x1 = 0.2 | 1034.18
343.15 K, x1 = 0.3001 | 1027.48
343.15 K, x1 = 0.7002 | 1009.51
343.15 K, x1 = 0.7998 | 1006.67
343.15 K, x1 = 0.8998 | 1004.51
343.15 K, x1 = 1 | 1002.25
353.14 K, x1 = 0.1002 | 1032.29
353.14 K, x1 = 0.4001 | 1013.27
353.14 K, x1 = 0.5002 | 1008.63
353.14 K, x1 = 0.5998 | 1004.72
353.14 K, x1 = 0.8998 | 996.587
353.14 K, x1 = 1 | 994.404
353.15 K, x1 = 0.2 | 1025.01
353.15 K, x1 = 0.7002 | 1001.4
353.16 K, x1 = 0.3001 | 1018.62
353.16 K, x1 = 0.7998 | 998.661
363.14 K, x1 = 0.1002 | 1022.7
363.14 K, x1 = 0.2 | 1015.82
363.14 K, x1 = 0.3001 | 1009.77
363.14 K, x1 = 0.5002 | 1000.22
363.14 K, x1 = 0.7002 | 993.263
363.14 K, x1 = 0.7998 | 990.621
363.14 K, x1 = 0.8998 | 988.594
363.15 K, x1 = 0.4001 | 1004.65
363.15 K, x1 = 0.5998 | 996.455
363.15 K, x1 = 1 | 986.471

NCCO [2-aminoethan-1-ol] + C[S+](C)[O-]
Conditions | mass density [kg/m3]
293.15 K, x1 = 0.1002 | 1092.35
293.15 K, x1 = 0.2 | 1084.23
293.15 K, x1 = 0.2999 | 1076.52
293.15 K, x1 = 0.4002 | 1068.58
293.15 K, x1 = 0.5002 | 1060.65
293.15 K, x1 = 0.5999 | 1052.61
293.15 K, x1 = 0.7002 | 1044.32
293.15 K, x1 = 0.8001 | 1035.24
293.15 K, x1 = 0.8998 | 1026.1
293.16 K, x1 = 1 | 1016.34
303.14 K, x1 = 0.2999 | 1066.93
303.14 K, x1 = 1 | 1008.4
303.15 K, x1 = 0.1002 | 1082.48
303.15 K, x1 = 0.4002 | 1059.15
303.15 K, x1 = 0.5002 | 1051.41
303.15 K, x1 = 0.5999 | 1043.58
303.15 K, x1 = 0.7002 | 1035.51
303.15 K, x1 = 0.8001 | 1026.69
303.15 K, x1 = 0.8998 | 1017.83
303.16 K, x1 = 0.2 | 1074.46
313.14 K, x1 = 0.1002 | 1072.61
313.14 K, x1 = 0.2999 | 1057.33
313.14 K, x1 = 1 | 1000.41
313.15 K, x1 = 0.2 | 1064.73
313.15 K, x1 = 0.4002 | 1049.71
313.15 K, x1 = 0.5002 | 1042.15
313.15 K, x1 = 0.5999 | 1034.52
313.15 K, x1 = 0.7002 | 1026.7
313.15 K, x1 = 0.8001 | 1018.12
313.15 K, x1 = 0.8998 | 1009.56
323.14 K, x1 = 0.1002 | 1062.74
323.15 K, x1 = 0.2999 | 1047.72
323.15 K, x1 = 0.4002 | 1040.26
323.15 K, x1 = 0.5002 | 1032.85
323.15 K, x1 = 0.5999 | 1025.42
323.15 K, x1 = 0.7002 | 1017.83
323.15 K, x1 = 0.8001 | 1009.5
323.15 K, x1 = 0.8998 | 1001.23
323.15 K, x1 = 1 | 992.384
323.16 K, x1 = 0.2 | 1054.96
333.14 K, x1 = 0.2999 | 1038.11
333.14 K, x1 = 1 | 984.302
333.15 K, x1 = 0.1002 | 1052.86
333.15 K, x1 = 0.4002 | 1030.78
333.15 K, x1 = 0.5002 | 1023.56
333.15 K, x1 = 0.7002 | 1008.93
333.15 K, x1 = 0.8001 | 1000.84
333.15 K, x1 = 0.8998 | 992.847
333.16 K, x1 = 0.2 | 1045.22
333.16 K, x1 = 0.5999 | 1016.3
343.14 K, x1 = 1 | 976.141
343.15 K, x1 = 0.1002 | 1042.97
343.15 K, x1 = 0.2 | 1035.46
343.15 K, x1 = 0.2999 | 1028.47
343.15 K, x1 = 0.4002 | 1021.28
343.15 K, x1 = 0.5002 | 1014.22
343.15 K, x1 = 0.5999 | 1007.15
343.15 K, x1 = 0.7002 | 999.999
343.15 K, x1 = 0.8001 | 992.114
343.15 K, x1 = 0.8998 | 984.393
353.14 K, x1 = 0.1002 | 1033.05
353.14 K, x1 = 0.2999 | 1018.81
353.14 K, x1 = 0.4002 | 1011.75
353.14 K, x1 = 0.5002 | 1004.84
353.14 K, x1 = 0.7002 | 990.992
353.14 K, x1 = 0.8001 | 983.32
353.14 K, x1 = 0.8998 | 975.863
353.14 K, x1 = 1 | 967.893
353.15 K, x1 = 0.2 | 1025.66
353.15 K, x1 = 0.5999 | 997.944
363.14 K, x1 = 0.1002 | 1023.1
363.14 K, x1 = 0.2 | 1015.84
363.14 K, x1 = 0.5002 | 995.408
363.14 K, x1 = 0.5999 | 988.672
363.14 K, x1 = 0.7002 | 981.91
363.14 K, x1 = 0.8001 | 974.446
363.14 K, x1 = 0.8998 | 967.234
363.15 K, x1 = 0.2999 | 1009.1
363.15 K, x1 = 0.4002 | 1002.17
363.15 K, x1 = 1 | 959.536
